Patent US20150368617A1, “METHOD FOR FORMING ENDOTHELIAL CELLS” (Korea Advanced Institute of Science and Technology (KAIST), priority 2012, published 2015)

Columns and labels:
Type in all cases: cell-based, mouse
[1] = test system: ICAM2+ ECs; assay: Cell adhesion assay, ICAM2+ ECs; settings: 6 hrs after plating; in the presence of VEGF-A
Description: (§1) Sorted Flk1+ MPCs or ICAM2+ ECs were plated onto Matrigel coated plates at a density of 10,000 cells/cm^2. Six hrs after plating, non-adherent cells were removed by washing and the cell number of adherent cells was counted following trypsinization. The percentage of adherent cells was calculated as (counted cell number/initial seeded cell number)×100.

[2] = test system: Flk1+ MPCs; assay: Apoptosis assay (Annexin V/PI) in differentiating Flk1+ MPCs; settings: 6 and 36 hrs
Description: Apoptosis assay was performed as previously described. To determine the cell cycle, BrdU/7-AAD cell cycle analysis was performed according to the manufacturer's instructions (BD Pharmingen™). Briefly, cells were incubated with BrdU (1 mM) for 1 hr, dissociated with dissociation buffer, and stained with anti-CD144 antibody. The cells were then fixed, permeabilized, and fixed once more, followed by 1 hr incubation with DNase I (200 U) at 37┌ C. After incubation with FITC-conjugated anti-BrdU antibody for 20 min at RT, the cells were stained with 7-AAD. The cells were analyzed by FACS Aria II and the data were analyzed using FlowJo software.

[3] = test system: VYI-ECs; assay: Angiogenesis assay using a microfluidic device; settings: 72 hr; co-treatment of Y27632 with VEGF-A
Description: To test the angiogenic property of VYI-ECs, we utilized a microfluidic platform that was modified from the previously described device. Briefly, a poly-dimethylsiloxane (PDMS) based microfluidic platform containing three channels was fabricated with poly-dimethylsiloxane using a soft lithography process. Two empty spaces in between three parallel channels were filled with a mixture of type I collagen (3 mg/ml, rat tail, BD Biosciences) and fibronectin (50 μg/ml, Invitrogen), which together acted as an ECM scaffold. The center channel was coated with fibronectin (10 μg/ml), and was seeded with 40˜50 μl of VYI-EC suspension (1×10^7 cells/ml). The device was tilted vertically for 1 hr to allow the cells to attach onto the sidewall of the scaffold by gravity. The cells were then seeded onto the other sidewall by flipping the device upside down. Cell culture media in the side channels containing VEGF-A (50 ng/ml) or VEGF-A (50 ng/ml) plus Y27632 (10 μM) were exchanged with fresh media every 12 hr. Phase contrast and immunofluorescent images were acquired to analyze the angiogenic sprouting formation of VYI-ECs.

[4] = test system: αMHC GFP+CMs; assay: Sorted αMHC-GFP+ CMs in feeder-free condition; settings: Y27632 10 μM
Description: Analysis and sorting for CMs were performed at day 10.5. We harvested differentiated Flk1+ MPCs on OP9 cells with 0.25% trypsin-EDTA or dissociation buffer (Invitrogen). Cardiac troponin-T (cTnT)+ and ┌ smooth muscle actin (SMA)+ cells were analyzed after permeabilization using Cytofix/Cytoperm solution (BD Biosciences) for 15 min. After permeabilization, the cells were incubated for 30 min with anti-mouse cTnT (NeoMarkers) monoclonal antibody. After washing in 10% Perm/Wash buffer (BD Biosciences), the cells were incubated for 10 min with Alexa Fluor® 647 anti-mouse IgG (Invitrogen). After washing in 10% Perm/Wash buffer (BD Biosciences), the cells were incubated for 30 min with Cy3-conjugated anti-┌ SMA (clone 1A4, Sigma). We sorted out CMs using ┌ MHC GFP. Sorted Flk1+ MPCs on OP9 cells were harvested with 0.25% trypsin-EDTA or dissociation buffer (Invitrogen) and cells were washed using phosphate buffered saline/10% FBS twice. Dead cells were excluded using 7-aminoactinomycin D (Invitrogen). Then, we sorted out ┌ MHC GFP+CMs and plated on to 0.1% gelatin coated dish in the differentiation medium. The medium was changed every 2 days. Analyses and sorting were performed by FACS Aria II (Beckton Dickinson). Data were analyzed using FlowJo Version 7.5.4 software (TreeStar). […]

[5] = test system: Flk1+ MPCs; assay: Cell adhesion assay, Flk1+ MPCs; settings: 6 hrs
Description: as §1

[6] = test system: VYI-ECs; assay: Matrigel tube forming assay; settings: addition of Y27632 10 μM to VEGF-A
Description: The purified VYI-ECs (described in detail in the Results section) were plated on Matrigel-filled plates at a density of 2-4×10^4 cells/cm^2, and were incubated in differentiation medium containing VEGF-A (50 ng/ml) with or without Y27632 (10┌ M). After 12 hrs, the tube structures were observed using Axiovert 25 microscope (Carl Zeiss) and phase-contrast images were taken using DeltaPix infinity X digital camera and DpxView LE software (DeltaPix, Denmark).

[7] = test system: ESC; assay: Estimation of number of ECs generated from one ESC in the 2D Matrigel system; settings: day 8.5
Description: FIG. 16. Estimation and comparison of number of ECs generated from one ESC grown with indicated agents in the 2D Matrigel system at day 6.5 and 8.5. Estimation was calculated from 5 independent incubations.
To maximize the amount of ECs obtained from ESC, we expanded the ICAM2+ ECs for 2 days using the same culture system with VEGF-A and Y27632 (FIG. 14A). When the ECs were grown for 2 days without either VEGF-A or Y27632, the population of CD31+/CD144+ ECs underwent a decrease of ˜30% from the initial population of ˜90% (FIG. 14B-D). […] This way, we were further able to obtain ˜4.2-fold expansion of CD31+/CD144+ ECs from the ICAM2+ ECs (FIGS. 14B-F) In the presence of VEGF-A, Y27632 promoted the adhesion of ICAM2+ ECs onto the plate by 1.3-fold at 6 hrs after plating (FIG. 14G). In these purified ECs, Y27632 and VEGF-A each promoted the proliferation of ECs to a similar level, and combination of Y27632 and VEGF-A promoted EC proliferation to a greater degree. […] Based on these findings, we conclude that further expansion of high purity ECs (>90%) could be achieved from ESC by combination of simultaneous ROCK suppression and VEGF-stimulation—these high purity ECs are hereafter referred to as “VEGF-A plus Y27632-induced and anti-ICAM2 antibody-sorted ECs (VYI-ECs)” (FIG. 14A). […]

SMILES: C[C@@H](N)[C@H]1CC[C@H](C(=O)Nc2ccncc2)CC1 [Y27632]
- adhesion of ICAM2+ ECs onto the plate [1]: 1.3 fold
- population of Annexin V+/PI- apoptotic cells [2]: did not significantly change
- increase of length of sprouting CD144+ VYI-ECs [3]: 1.7 fold
- self-beating CMs compared to control ([4]; day 12.5): much more self-beating CMs
- area of self-beating CMs compared control ([4]; day 14.5, confluent state): ~2.8 fold
- adhesion of Flk1+ cells onto the plates compared to control [5]: 1.3 fold
- increase of formation of vascular networks [6]: 1.7 fold
- number of ECs generated from one ESC (from ˜73 Flk1+ MPCs) [7]: ~36
